Publication PMC8533089, “Characteristics of Neurokinin-3 Receptor and Its Binding Sites by Mutational Analysis” (Biology, 2021)
Entries after “also recorded” stand apart in the source; their conditions may differ. Read-outs that look alike come from different tables or passages of the source.

Legend:
[1] = target: tiTac3Ra (Oreochromis niloticus, UniProt A0A075QPN8); assay: CRE-Luc antagonist assay, wild-type receptor, COS-7; assay type: cell-based, tilapia (Oreochromis niloticus); conditions: for IC50: antagonist 0.001–1000 μM added 10 min before peptide
tiTac3Ra, sequence (A0A075QPN8 entry or part of it): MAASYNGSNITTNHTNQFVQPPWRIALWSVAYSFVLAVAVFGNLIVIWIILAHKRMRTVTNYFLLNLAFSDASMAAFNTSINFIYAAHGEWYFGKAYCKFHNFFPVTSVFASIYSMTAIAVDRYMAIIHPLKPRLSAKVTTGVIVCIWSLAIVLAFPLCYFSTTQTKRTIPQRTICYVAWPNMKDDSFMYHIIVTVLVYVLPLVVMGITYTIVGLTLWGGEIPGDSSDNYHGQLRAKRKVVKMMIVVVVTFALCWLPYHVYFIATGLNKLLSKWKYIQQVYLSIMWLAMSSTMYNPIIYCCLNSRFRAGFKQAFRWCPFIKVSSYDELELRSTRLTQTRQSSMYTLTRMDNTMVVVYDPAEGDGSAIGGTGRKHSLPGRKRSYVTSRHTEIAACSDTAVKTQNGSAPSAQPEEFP
Method: In order to study the signaling pathways of the mutant tiTac3Ra, the entire coding regions of tiTac3Ra (GenBank accession no. KF471674), and both of the mutant receptors were inserted into pcDNA3.1 (Invitrogen, Massachusetts, United States). We used a sensitive luciferase (LUC) reporter gene assay. […] Transient transfection, cell procedures and stimulation protocols followed the procedures previously described. Briefly, 3 μg of each construct, together with 3 μg of a luciferase reporter plasmid were transiently transfected into COS-7 cells (American Type Culture Collection, Manassas, VA, USA). Forty-eight hours after transfection, cells transfected with Tac3Ra plasmid fused with GFP were applied with an Hoechst dye (Invitrogen, Massachusetts, United States; diluted 1:1000) in order to mark nuclei in the culture for transfection analysis.
Non-peptide molecules, SB-222200 (Sigma, Merck, Darmstadt, Germany) and Osanetant (Axon Medchem, Reston, VA, USA), known to antagonize mammalian NK3R [49] were studied for their ability to antagonize tiTac3Ra, which was activated with a fixed dose of the native ligands (10 nM tiNKB or tiNKF), combined with increasing doses of the antagonists (0.001–1000 μM). The antagonists were added 10 min prior to the addition of the peptides. IC50 values were calculated from concentration response curves by means of computerized nonlinear curve-fitting with Prism version 9 software (GraphPad, San Diego, CA, USA). All experiments were repeated at least 3 times using cells from independent transfections, each performed in triplicate.
NKB antagonists, SB-222200 (Figure 7A) and Osanetant (Figure 7B) were added in increasing concentrations (0.001–1000 μM) to transfected COS-7 that expressed tiTac3Ra. Ten minutes after the induction of the antagonists, the ligand, tiNKB or tiNKF (10 nM) was added to the media.

[2] = test system: LH plasma levels; assay: In vivo effect of NKB antagonists on LH plasma levels (ELISA); parameters: species or system adult male tilapia (Oreochromis niloticus)
Method: (§1) The levels of FSH, LH and GH in the plasma were measured by specific competitive enzyme-linked immunosorbent assay (ELISA), developed for tilapia, based on recombinant gonadotropins or GH that were created by using the yeast Pichia pastoris. For the ELISAs, we used primary antibody antisera against GH [51], FSHβ [52], or against rtLHβ [53], and rtFSHβα [52], rtLHβ [53] or tiGH for the standard curves. Sensitivity for the plasma measurements were 15.84 pg/mL for LH, 0.24 pg/mL for FSH and 30.0 pg/mL for GH. The inter-assay coefficient of variation (CV) was 14.8, 12.5, and 13.0%, while intra-assay CV was 7.2, 8.0, and 8.0% for LH, FSH and GH, respectively.
(§2) Adult male tilapia (BW 89.29 ± 32.93 g; gonado-somatic index (GSI) 0.24% ± 0.40%) were injected IP (intraperitoneal) with NKB antagonists, SB-222200 or Osanetant (100 µg/kg BW), and after 0.5 h, a second injection of sGnRHa (10 µg/kg BW) was added. Control groups were injected with sGnRHa ([DAla^6, Pro^9-Net]-mammalian GnRH; Bachem, Budendorf, Switzerland) 10 µg/kg BW) as a positive control. The fish were bled from the caudal blood vessels into heparinized syringes 0, 0.5, 2, 6 and 24 h after injection. This time course is according to standard protocols used previously to test the effect of GnRH on circulating levels of LH, FSH, and GH in tilapia. Blood samples were collected from the caudal vasculature and centrifuged (3200 rpm for 30 min at 4 °C) (Centrifuge: Fresco 17, Rotor: 75003424, Thermo Scientific™, Langenselbold Germany) to obtain plasma samples, which were stored at −20 °C until assayed. Three independent experiments were carried out for the in-vivo studies.

[3] = test system: FSH plasma levels; assay: In vivo effect of NKB antagonists on FSH plasma levels (ELISA); parameters: species or system adult male tilapia (Oreochromis niloticus); conditions: antagonist 100 µg/kg BW IP, sGnRHa 10 µg/kg BW after 0.5 h; n = 10
Method: as §1
as §2, with “Blood samples were collected from the caudal vasculature and centrifuged (3200 rpm for 30 min at 4 °C) (Centrifuge: Fresco 17, Rotor: 75003424, Thermo Scientific™, Langenselbold Germany) to obtain plasma samples, which were stored at −20 °C until assayed. Three independent experiments were carried out for the in-vivo studies.” left out

[4] = test system: plasma GH and gonadotropins; assay: 14-day in vivo experiment: plasma GH and gonadotropins (ELISA); parameters: species or system adult male tilapia (Oreochromis niloticus); conditions: 500 µg/kg BW IP every 48 h, 14 days, versus control
Method: as §1
(§3) Adult male tilapia (BW 87.29 ± 26.1 g; gonado-somatic index (GSI 0.21% ± 0.36%) were IP injected with SB-222200 (500 µg/kg BW in 25% DMSO) and saline with 25% DMSO as a control every 48 h during a 14-day period. Blood was sampled every 48 h. Milt volume was collected from 6 fish from each group 7 and 14 days after the first injection, generally according to [55].

[5] = test system: milt volume; assay: 14-day in vivo experiment: milt volume / sperm production; parameters: species or system adult male tilapia (Oreochromis niloticus); conditions: 500 µg/kg BW IP every 48 h; days 7 and 14; six fish per group; versus control
Method: as §3

[6] = test system: Tac3R; parameters: method as in PMID 10992004; conditions: cited from earlier work
Text: The effect of NKB/NKF peptides on gonadotropin secretion in fish is already well established. The first indication that NKB is widely expressed in fish species and has a stimulatory reproductive effect was shown in zebrafish, goldfish, and tilapia. […] Osetanant re ...

`CC[C@H](NC(=O)c1c(C)c(-c2ccccc2)nc2ccccc12)c1ccccc1` [SB-222200] gave an IC50 ([1]; 10 nM tiNKB, COS-7, CRE-Luc, read-out: IC50 versus tiNKB) of 84.1 µM, an IC50 ([1]; 10 nM tiNKF, COS-7, CRE-Luc, read-out: IC50 versus tiNKF) of 37.1 µM and an Emax ([1]; COS-7, CRE-Luc, 10 nM tiNKB or tiNKF, read-out: luciferase activity reduced to % of maximal response) of 50%. For the same compound, the “maximum response rate compared with Osanetant” value ([1]; Figure 7C,D) was “higher maximum response rate than Osanetant”, the “inhibitory effect on Tac3Ra activation” value ([1]; in words) was “strong inhibitory effect” and the “reduction of receptor activity (in words)” value ([1]; restated in Discussion) was “reduced the receptor activity by half”. For the same compound, the LH plasma levels ([2]; 100 µg/kg BW IP, 2 h after injection, versus sGnRHa, n = 10) was “significantly lower”, the “LH levels in plasma, sole IP injection” value ([2]; Discussion) was “decrease in the LH levels in plasma” and the “LH release, combination with sGnRHa” value ([2]; antagonist 100 µg/kg BW IP, then sGnRHa 10 µg/kg BW after 0.5 h, n = 10) was “inhibitory effect on LH release, without any significant change when compared to the sGnRHa; also recorded: drop in LH release”. For the same compound, the “LH plasma levels (abstract)” value ([2]; two hours post intraperitoneal injection) was “decreased LH plasma levels”, the “FSH levels, 2 h post injection, combination with sGnRHa” value [3] was “increased FSH levels” and the “Plasma GH and gonadotropins” value [4] was “did not change significantly”. The “sperm production (milt volume)” value [5] was “retained a low sperm production after 7 and 14 days compared to that of the control group”, the “inhibition of NKB binding to the membranes of CHO cells” value ([6]; CHO cells stably expressing the Tac3R receptor) was “inhibited NKB binding to the membranes of CHO cells” and the “antagonism of NKB-induced Ca^2+ mobilization” value ([6]; HEK 293 cells) was “antagonized NKB-induced Ca^2+ mobilization in HEK 293 cells”.
